# Laboratory results published in patent US20160369307A1, “METHOD OF INCREASING BIOMASS AND LIPID CONTENT IN A MICRO-ORGANISM AND A GENETICALLY MODIFIED MICRO-ORGANISM EXHIBITING ENHANCED AUTOPHAGY” (RELIANCE INDUSTRIES LIMITED, priority 2014, published 2016).
# Where a SMILES comes first, the peptide text is derived from it. The star is where a group is joined. Cbz = O=C(OCc1ccccc1)*; CH2F = FC*
# Assays:
# Chlorella sorokiniana [1] = assay: Cell count of Chlorella sorokiniana under salinity stress with LiCl; assay type: cell-based; conditions: for Cell Density at Day 0: Day 0, day of salinity exposure (baseline); for Cell Density at Day 4: Day 4 of salinity stress
# Experimental: 5mM LiCl was added to the TAP medium in the Experimental plates, but not in the Control. […]
# Thus, it can be concluded that even in environmental stress conditions like exposure to salinity, treatment of the algal cells with LiCl prevents cll death, increases the biomass and lipid content of the algal cells, and concomitantly yields an increased amount of commercially valuable products like oils which are known to be produced by the algal cells.
# Chlorella sorokiniana [2] = assay: Recovery of Chlorella sorokiniana cultures after UV exposure with z-vad-fmk; assay type: cell-based
# Experimental: 1×10^6 cells/ml of Chlorella sorokiniana were grown for three days in Tris-Acetate-Phosphate (TAP) medium and then exposed to UV at 250000 μJ/cm^2 for one minute using CL-1000 UV crosslinker. Immediately after UV exposure, 25 μM Z-vad-fmk was added to the TAP medium. The cultures were kept in the dark for 24 hours. Cultures were then exposed to light of 2000 lux for 12 hours followed by 12 hours of darkness.
# FIG. 1B graphically represents the optical density at 750 nm of the Control cultures versus the optical density of the cultures treated with z-vad-fmk on the 13th day after UV exposure. From these figures it is clear that z-vad-fmk induced autophagy in the Chlorella sorokiniana cells helping the cells to recover from UV exposure. […] Thus, it can be concluded that even in environmental stress conditions like exposure to UV, treatment of the algal cells with z-vad-fmk prevents cell death, increases the biomass and lipid content of the algal cells, and concomitantly yields an increased amount of commercially valuable products like oils which are known to be produced by the algal cells.
# [3] = TAP + 0.6% Salinity + 5 mM LiCl
# [4] = TAP + 1.2% Salinity + 5 mM LiCl
SMILES,"Cell counts versus Control after salinity stress (FIG. 2) (Chlorella sorokiniana [1]; 5 mM LiCl, after 4 days of salinity stress exposure)",Cell Density at Day 0 (Chlorella sorokiniana [1]; [3]),Cell Density at Day 4 (Chlorella sorokiniana [1]; [3]),Cell Density at Day 0 (Chlorella sorokiniana [1]; [4]),Cell Density at Day 4 (Chlorella sorokiniana [1]; [4]),"Revival of bleached cultures after UV exposure (Chlorella sorokiniana [2]; 25 μM added to TAP medium immediately after UV 250000 μJ/cm^2 for one minute, 10 days)","Culture viability (plates, FIG. 1A) after UV exposure (Chlorella sorokiniana [2]; 25 μM, 13 days after UV exposure, versus Control plates)"
[Cl-].[Li+] [LiCl],higher cell counts,2.6 × 10^6 cells/ml,6.57 × 10^6 cells/ml,2.6 × 10^6 cells/ml,7.22 × 10^6 cells/ml,–,–
COC(=O)C[C@H](NC(=O)[C@H](C)NC(=O)[C@@H](NC(=O)OCc1ccccc1)C(C)C)C(=O)CF [z-vad-fmk] (Cbz-Val-Ala-Asp(OMe)-CH2F),–,–,–,–,–,only z-vad-fmk treated cultures were seen to revive after 10 days,only the z-vad-fmk treated plates show viable cultures
